{"source": "paper PMC5217682", "about": "“Galactomannan Catabolism Conferred by a Polysaccharide Utilization Locus of Bacteroides ovatus” (The Journal of Biological Chemistry, 2016)", "molecular_target": "T1, BoMan26B (Bacteroides ovatus, UniProt A0ABU3IS29)", "T1 construct": "gene RO706_12620; residues 1-19 (lipoprotein signal) deleted; His tag kept; expressed in E. coli BL21(DE3); 347 residues, 39,870 Da with tag", "T1 sequence (A0ABU3IS29 20-360)": "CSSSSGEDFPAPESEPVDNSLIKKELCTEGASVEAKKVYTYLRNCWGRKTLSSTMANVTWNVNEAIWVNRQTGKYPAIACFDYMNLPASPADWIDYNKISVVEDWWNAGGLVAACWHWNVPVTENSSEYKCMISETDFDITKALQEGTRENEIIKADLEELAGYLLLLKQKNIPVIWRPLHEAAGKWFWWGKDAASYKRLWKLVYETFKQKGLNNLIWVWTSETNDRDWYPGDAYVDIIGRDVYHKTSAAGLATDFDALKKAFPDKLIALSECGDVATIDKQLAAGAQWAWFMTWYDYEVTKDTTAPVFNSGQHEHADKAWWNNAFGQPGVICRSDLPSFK", "test": "hydrolysis by HPAEC-PAD", "format": "biochemical", "conditions": "[…] substrate, […] potassium phosphate pH […] °C", "data": [{"compound": "OC[C@H]1O[C@@H](O[C@H]2[C@H](O)[C@H](O)[C@H](O[C@H]3[C@H](O)[C@H](O)[C@H](O[C@H]4[C@H](O)[C@H](O)[C@H](O[C@H]5[C@H](O)[C@H](O)C(O)O[C@@H]5CO)O[C@@H]4CO)O[C@@H]3CO)O[C@@H]2CO)[C@@H](O)[C@@H](O)[C@@H]1O", "note": "(stereo partly shown) [M5, mannopentaose]", "values": [{"measurement": "hydrolysis by HPAEC-PAD", "value": "it hydrolyzed all tested manno oligo- and polysaccharides (M3–M6"}]}]}
